Source: US9550742B2, “11-OXO-10,11-dihydrodibenzo[B,F][1,4]thiazepine S-oxide derivatives and their use as dopamine D2 receptor antagonists” (The United States of America, as Represented by the …, priority 2013, dated 2017)
Where two headings read alike, the source gives them in different places.

Assays:
M5 = M5 (Homo sapiens, UniProt P08912); assay: Affinity profile panel: M5; details: inhibition of binding
D2 DAR = molecular target: T1, D2 DAR (Homo sapiens, UniProt P14416); assay: D2 Ca^2+ screen assay (calcium accumulation, HEK293 T-REx with Gqi5); format: cell-based
T1 construct: expressed in transfected cells; host or cells: HEK293 T-REx, Tet-inducible, with chimeric G-protein Gqi5
T1 sequence (P14416 whole entry): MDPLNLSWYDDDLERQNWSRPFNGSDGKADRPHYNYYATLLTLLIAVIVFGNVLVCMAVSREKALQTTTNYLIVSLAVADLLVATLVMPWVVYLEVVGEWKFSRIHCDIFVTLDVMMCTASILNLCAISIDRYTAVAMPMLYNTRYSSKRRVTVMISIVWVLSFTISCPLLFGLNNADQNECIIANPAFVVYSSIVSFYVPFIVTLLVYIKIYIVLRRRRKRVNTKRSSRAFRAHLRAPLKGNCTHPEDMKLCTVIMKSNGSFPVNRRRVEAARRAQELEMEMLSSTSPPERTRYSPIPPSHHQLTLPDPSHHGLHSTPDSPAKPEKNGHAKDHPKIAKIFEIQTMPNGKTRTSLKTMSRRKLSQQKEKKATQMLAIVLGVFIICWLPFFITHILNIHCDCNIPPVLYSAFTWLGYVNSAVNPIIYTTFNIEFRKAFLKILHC
Description: The resting concentration of calcium ions (Ca^2+) in the cells' cytoplasm is normally maintained in the range of 10-100 nM. To maintain this low concentration, Ca^2+ is actively pumped from the cytosol to the extracellular space and into the endoplasmic reticulum (ER), and sometimes into the mitochondria. Signaling occurs when the cell is stimulated to release Ca^2+ from intracellular stores. The most common signaling pathway that increases cytoplasmic calcium concentration is the phospholipase C (PLC) pathway. […] IP3 diffuses to the ER, binds to its receptor (IP3 receptor), which is a Ca^2+ channel and, thus, releases Ca^2+ from the ER to the cytosol. To measure this cytosolic Ca^2+ accumulation, we used the Screen Quest™ Fluo-8 Calcium Assay Kit (AAT Bioquest, Sunnyvale, Calif.). Acetoxymethyl (AM) esters bound to Fluo-8™ dye are non-polar molecules that easily cross live cell membranes transporting the dye inside the cell, and are then rapidly hydrolyzed by cellular esterases inside live cells. As Fluo-8™ is freed from AM esters, it binds to Ca^2+ and emits a fluorescent signal at 514 nm that escalates with increasing cytosolic Ca^2±. To measure this calcium flux signal, we used the Functional Drug Screening System (FDSS) (Hamamatsu, Japan), a high throughput screening device that allows optical detection of signal transmissions within living cells in a time-resolving fashion. […] Quest Fluo-8™ calcium reagent was freshly prepared prior to adding to the cells (lyophilized Fluo-8™ dye provided with the kit was re-suspended in 200 μL DMSO as a 500× stock and stored at −20° C.). 2 μL/well of Quest Fluo-8™ calcium dye diluted in HBSS +10 mM HEPES buffer (for every 10 mL buffer, 1 mL of 10× quencher provided in the kit and 20 μL of 500×DMSO stock dye were added) was added to cells with a Multi-Drop Combi (ThermoScientific) and incubated for 45-90 min in the dark at ambient temperature. Then, the plates were introduced into the FDSS where they were pinned with 23 nL of test compound or dopamine controls and were read by FDSS in non-stimulated mode for 180 sec for detection of agonists. […]

H1 = H1 (Homo sapiens, UniProt P35367); assay: Affinity profile panel: H1; details: inhibition of binding
5-HT1B = 5-HT1B (Homo sapiens, UniProt P28222); assay: Affinity profile panel: 5-HT1B; details: inhibition of binding
5-HT1B, sequence (P28222 whole entry, species assumed): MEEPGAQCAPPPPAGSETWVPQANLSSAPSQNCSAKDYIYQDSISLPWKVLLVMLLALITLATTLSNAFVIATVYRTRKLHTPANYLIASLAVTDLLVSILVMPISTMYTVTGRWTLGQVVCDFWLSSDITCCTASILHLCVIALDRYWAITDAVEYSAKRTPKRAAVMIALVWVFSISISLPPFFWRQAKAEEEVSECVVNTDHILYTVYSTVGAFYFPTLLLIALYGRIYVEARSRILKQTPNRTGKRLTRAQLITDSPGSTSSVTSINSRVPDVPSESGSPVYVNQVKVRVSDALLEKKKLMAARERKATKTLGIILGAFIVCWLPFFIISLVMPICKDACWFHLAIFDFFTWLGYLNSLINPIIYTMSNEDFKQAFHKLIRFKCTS

M1 = M1 (Homo sapiens, UniProt P11229); assay: Affinity profile panel: M1; details: inhibition of binding
M1, sequence (P11229 whole entry): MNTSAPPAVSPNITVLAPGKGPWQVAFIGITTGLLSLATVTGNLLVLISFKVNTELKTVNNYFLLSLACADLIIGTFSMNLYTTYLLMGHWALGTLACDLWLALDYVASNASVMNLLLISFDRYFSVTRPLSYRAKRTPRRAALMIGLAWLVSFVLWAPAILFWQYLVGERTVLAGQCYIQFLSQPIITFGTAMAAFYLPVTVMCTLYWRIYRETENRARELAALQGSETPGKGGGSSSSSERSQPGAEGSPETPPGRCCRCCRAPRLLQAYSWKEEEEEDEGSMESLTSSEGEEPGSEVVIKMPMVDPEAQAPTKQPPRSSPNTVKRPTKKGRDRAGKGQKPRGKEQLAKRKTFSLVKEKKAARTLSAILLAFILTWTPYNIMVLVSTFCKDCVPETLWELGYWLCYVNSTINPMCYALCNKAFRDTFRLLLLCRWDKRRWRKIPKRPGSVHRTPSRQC

DAT = DAT (Homo sapiens, UniProt Q01959); assay: Affinity profile panel: DAT; details: inhibition of binding
Source text: (§1) Antipsychotic drugs (depending on the specific drug) typically interact with a range of serotonergic, adrenergic, histaminergic, and muscarinic receptors.

M2 = M2 (Homo sapiens, UniProt P08172); assay: Affinity profile panel: M2; details: inhibition of binding
M2, sequence (P08172 whole entry): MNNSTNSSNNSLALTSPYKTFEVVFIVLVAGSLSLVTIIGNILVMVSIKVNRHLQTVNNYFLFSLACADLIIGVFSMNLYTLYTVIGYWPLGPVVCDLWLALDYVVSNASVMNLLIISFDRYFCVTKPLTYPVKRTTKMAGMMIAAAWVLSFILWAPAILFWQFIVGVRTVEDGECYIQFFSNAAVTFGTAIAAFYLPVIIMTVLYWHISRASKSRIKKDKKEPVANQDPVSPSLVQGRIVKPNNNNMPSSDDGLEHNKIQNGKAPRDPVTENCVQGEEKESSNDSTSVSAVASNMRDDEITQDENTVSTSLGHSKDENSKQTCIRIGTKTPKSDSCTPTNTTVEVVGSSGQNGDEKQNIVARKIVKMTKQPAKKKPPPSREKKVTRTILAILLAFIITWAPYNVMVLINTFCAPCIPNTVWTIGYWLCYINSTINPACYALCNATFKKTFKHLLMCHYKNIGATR

Alpha2C = Alpha2C (Homo sapiens, UniProt P18825); assay: Affinity profile panel: Alpha2C; details: inhibition of binding
5-HT1A = 5-HT1A (Homo sapiens, UniProt P08908); assay: Affinity profile, panel of 46 GPCRs and related proteins: 5-HT1A; details: inhibition of binding
D1 = D1 (Homo sapiens, UniProt P21728); assay: D1 binding assay (FIG. 2B)
D1, sequence (P21728 whole entry): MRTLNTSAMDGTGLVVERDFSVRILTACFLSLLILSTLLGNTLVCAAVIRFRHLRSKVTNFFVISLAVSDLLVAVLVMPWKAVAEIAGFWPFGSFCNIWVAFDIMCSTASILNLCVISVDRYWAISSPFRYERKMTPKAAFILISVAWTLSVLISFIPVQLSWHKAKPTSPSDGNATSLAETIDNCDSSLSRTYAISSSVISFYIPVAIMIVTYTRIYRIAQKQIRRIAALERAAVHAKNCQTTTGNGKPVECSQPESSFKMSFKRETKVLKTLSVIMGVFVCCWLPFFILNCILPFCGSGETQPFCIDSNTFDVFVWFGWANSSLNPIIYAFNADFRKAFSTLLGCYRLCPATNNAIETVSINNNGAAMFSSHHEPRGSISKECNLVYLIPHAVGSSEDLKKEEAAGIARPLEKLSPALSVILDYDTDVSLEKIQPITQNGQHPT

5-HT1D = 5-HT1D (Homo sapiens, UniProt P28221); assay: Affinity profile panel: 5-HT1D; details: inhibition of binding
H3 = H3 (Homo sapiens, UniProt Q9Y5N1); assay: Affinity profile panel: H3; details: inhibition of binding
H3, sequence (Q9Y5N1 whole entry): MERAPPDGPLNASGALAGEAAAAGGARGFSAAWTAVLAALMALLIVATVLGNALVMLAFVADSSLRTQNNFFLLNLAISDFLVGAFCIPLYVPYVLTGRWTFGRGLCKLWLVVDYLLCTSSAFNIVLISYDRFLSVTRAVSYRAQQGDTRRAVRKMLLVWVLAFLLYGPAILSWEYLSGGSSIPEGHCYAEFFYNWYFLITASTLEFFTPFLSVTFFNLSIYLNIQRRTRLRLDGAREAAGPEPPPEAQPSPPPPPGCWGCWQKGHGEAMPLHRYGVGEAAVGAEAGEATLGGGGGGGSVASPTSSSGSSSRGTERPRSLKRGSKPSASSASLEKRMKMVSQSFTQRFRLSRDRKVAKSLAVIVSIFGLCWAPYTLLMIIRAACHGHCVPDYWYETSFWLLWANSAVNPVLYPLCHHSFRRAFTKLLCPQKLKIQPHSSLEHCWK

D4 = D4 (Homo sapiens, UniProt P21917); assay: D4 binding assay (FIG. 2B)
NET = NET (Homo sapiens, UniProt P23975); assay: Affinity profile panel: NET; details: inhibition of binding
NET, sequence (P23975 whole entry): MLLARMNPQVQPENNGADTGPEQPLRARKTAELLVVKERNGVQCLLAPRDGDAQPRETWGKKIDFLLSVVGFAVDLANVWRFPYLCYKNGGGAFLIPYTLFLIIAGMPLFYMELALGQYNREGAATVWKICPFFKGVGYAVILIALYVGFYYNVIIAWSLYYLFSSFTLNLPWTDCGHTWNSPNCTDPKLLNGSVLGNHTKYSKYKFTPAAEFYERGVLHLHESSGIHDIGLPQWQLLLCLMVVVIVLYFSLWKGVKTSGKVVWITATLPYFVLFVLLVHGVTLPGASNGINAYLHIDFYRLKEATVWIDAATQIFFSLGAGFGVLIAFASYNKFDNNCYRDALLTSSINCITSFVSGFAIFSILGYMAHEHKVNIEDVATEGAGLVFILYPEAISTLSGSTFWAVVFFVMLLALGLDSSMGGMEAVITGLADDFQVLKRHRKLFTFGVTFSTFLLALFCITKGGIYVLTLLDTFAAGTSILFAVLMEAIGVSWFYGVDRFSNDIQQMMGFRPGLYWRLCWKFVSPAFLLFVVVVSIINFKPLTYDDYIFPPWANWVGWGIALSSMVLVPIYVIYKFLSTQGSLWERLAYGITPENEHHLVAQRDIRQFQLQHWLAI
Source text: as §1

BZP Rat Brain Site = assay: Affinity profile panel: BZP Rat Brain Site; details: inhibition of binding
5-HT3 = 5-HT3 (Homo sapiens, UniProt P46098); assay: Affinity profile panel: 5-HT3; details: inhibition of binding
5-HT3, sequence (P46098 24-478, species assumed): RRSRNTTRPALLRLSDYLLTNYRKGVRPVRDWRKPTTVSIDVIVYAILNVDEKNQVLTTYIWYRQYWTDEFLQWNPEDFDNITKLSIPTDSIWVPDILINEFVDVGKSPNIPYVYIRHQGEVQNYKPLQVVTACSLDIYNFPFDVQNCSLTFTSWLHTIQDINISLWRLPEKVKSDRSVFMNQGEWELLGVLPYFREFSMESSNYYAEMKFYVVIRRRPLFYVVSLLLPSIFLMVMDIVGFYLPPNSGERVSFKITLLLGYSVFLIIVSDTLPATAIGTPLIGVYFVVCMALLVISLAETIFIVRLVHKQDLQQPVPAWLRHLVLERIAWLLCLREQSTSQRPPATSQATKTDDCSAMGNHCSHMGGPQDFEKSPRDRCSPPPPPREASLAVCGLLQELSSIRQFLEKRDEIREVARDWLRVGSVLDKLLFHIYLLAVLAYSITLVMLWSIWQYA

Beta1 = Beta1 (Homo sapiens, UniProt P08588); assay: Affinity profile panel: Beta1; details: inhibition of binding
Beta1, sequence (P08588 whole entry): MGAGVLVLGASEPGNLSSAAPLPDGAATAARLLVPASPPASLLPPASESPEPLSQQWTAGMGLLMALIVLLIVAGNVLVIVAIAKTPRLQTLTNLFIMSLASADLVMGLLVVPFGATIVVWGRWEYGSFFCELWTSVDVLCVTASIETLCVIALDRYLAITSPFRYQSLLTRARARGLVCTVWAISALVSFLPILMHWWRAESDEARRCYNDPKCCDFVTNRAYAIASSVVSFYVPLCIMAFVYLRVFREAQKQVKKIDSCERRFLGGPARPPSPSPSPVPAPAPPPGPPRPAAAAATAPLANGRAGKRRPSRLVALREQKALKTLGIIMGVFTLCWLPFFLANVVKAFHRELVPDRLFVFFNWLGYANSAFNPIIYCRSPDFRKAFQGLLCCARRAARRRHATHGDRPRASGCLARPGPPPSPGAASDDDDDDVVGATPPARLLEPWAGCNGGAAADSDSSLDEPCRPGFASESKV

D3 = D3 (Homo sapiens, UniProt P35462); assay: Affinity profile panel: D3; details: inhibition of binding
5-HT5A = 5-HT5A (Homo sapiens, UniProt P47898); assay: Affinity profile panel: 5-HT5A; details: inhibition of binding
5-HT5A, sequence (P47898 whole entry, species assumed): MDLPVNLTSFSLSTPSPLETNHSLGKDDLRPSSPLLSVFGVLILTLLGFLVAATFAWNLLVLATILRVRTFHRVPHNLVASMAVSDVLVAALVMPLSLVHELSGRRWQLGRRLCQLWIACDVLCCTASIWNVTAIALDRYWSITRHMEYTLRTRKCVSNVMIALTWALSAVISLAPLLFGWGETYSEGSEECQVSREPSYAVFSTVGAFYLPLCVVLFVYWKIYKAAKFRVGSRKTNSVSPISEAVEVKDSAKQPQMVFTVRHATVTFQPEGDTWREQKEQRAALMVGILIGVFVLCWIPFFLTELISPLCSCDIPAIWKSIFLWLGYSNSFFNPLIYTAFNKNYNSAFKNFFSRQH

Beta3 = Beta3 (Homo sapiens, UniProt P13945); assay: Affinity profile panel: Beta3; details: inhibition of binding
5-HT1E = 5-HT1E (Homo sapiens, UniProt P28566); assay: Affinity profile panel: 5-HT1E; details: inhibition of binding
5-HT1E, sequence (P28566 whole entry, species assumed): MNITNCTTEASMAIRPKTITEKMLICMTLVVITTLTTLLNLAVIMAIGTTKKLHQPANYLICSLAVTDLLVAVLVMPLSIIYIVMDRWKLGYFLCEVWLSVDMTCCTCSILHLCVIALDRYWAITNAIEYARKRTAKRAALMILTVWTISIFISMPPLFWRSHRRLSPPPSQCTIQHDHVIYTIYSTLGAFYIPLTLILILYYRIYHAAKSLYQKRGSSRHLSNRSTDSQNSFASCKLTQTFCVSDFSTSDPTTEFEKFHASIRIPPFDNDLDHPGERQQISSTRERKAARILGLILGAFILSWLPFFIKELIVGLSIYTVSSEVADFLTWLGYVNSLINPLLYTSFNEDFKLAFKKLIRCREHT

[1] = molecular target: D3 human dopamine receptors (Homo sapiens, UniProt P35462); assay: D3 binding assay ([^3H]methylspiperone, HEK293 membranes)
Description: Cells were cultured in Dulbecco's modified Eagle's Medium containing 10% FBS, 1,000 units/mL Penicillin, 1,000 mg/mL Streptomycin, 100 mM Sodium Pyruvate, 1 μg/mL Gentamicin, and […] G418. All cells were maintained at 37° C. in 5% CO2 and 90% humidity. For radioligand binding assays, cells were removed mechanically using calcium and magnesium-free Earle's Balanced Salt Solution (EBSS(−)). Intact cells were collected by centrifugation and then lysed with 5 mM Tris-HCl and 5 mM MgCl2 at pH 7.4 in a glass homogenizer. […] Membrane preparations were incubated for 90 min at room temperature with various concentrations of radioligand in a reaction volume of 250 μL EBSS containing 200 mM sodium metabisulfite. […] Bound ligand was separated from unbound by filtration through GF/C filters using a PerkinElmer cell harvester with ice cold EBSS (4 washes) and quantified on a Top-count (PerkinElmer) after addition of scintillation solution. […] In order to determine the affinity of a given compound for a receptor type, competition-binding assays were performed. […] Reactions were incubated, terminated, and quantified as indicated above.

CN1C(=O)c2ccccc2[S@+]([O-])c2ccc(C(=O)NCCc3cccs3)cc21 [Compound 55, 10-Methyl-11-oxo-N-(2-(thiophen-2-yl)ethyl)-10,11-dihydrodibenzo[b,f][1,4]thiazepine-8-carboxamide 5-(S)-oxide]
Inhibition (%) M5 (M5): −6.5% | AC50 (D2 DAR; dopamine D2 calcium release assay of Example 1, read-out: Ca^2+ AC50): < 1000 nM | AC50 (D2 DAR; dose response curve, read-out: D2 Ca^2+ assay AC50): 70 nM | Inhibition (%) H1 (H1): 41.6% | Inhibition (%) 5-HT1B (5-HT1B): 24.0% | Inhibition (%) M1 (M1): −0.6% | Inhibition (%) DAT (DAT): −5.3% | Inhibition (%) M2 (M2): −1.7% | Inhibition (%) Alpha2C (Alpha2C): 20.9% | Inhibition (%) 5-HT1A (5-HT1A): 8.2% | Ki (D1): 67.1 µM | Inhibition (%) 5-HT1D (5-HT1D): 13.1% | Inhibition (%) H3 (H3): −23.6% | Ki (D4): 8.48 µM | Inhibition (%) NET (NET): 8.9% | Inhibition (%) BZP Rat Brain Site (BZP Rat Brain Site): 0.5% | Inhibition (%) 5-HT3 (5-HT3): 8.5% | Inhibition (%) Beta1 (Beta1): 12.6% | Inhibition (%) D3 (D3): 59.1% | Inhibition (%) 5-HT5A (5-HT5A): 9.5% | Inhibition (%) Beta3 (Beta3): 6.6% | Inhibition (%) 5-HT1E (5-HT1E): 9.9% | Ki [1]: 2900 nM
